From ChEMBL document CHEMBL4610120, “New Broad-Spectrum Antibiotics Containing a Pyrrolobenzodiazepine Ring with Activity against Multidrug-Resistant Gram-Negative Bacteria” (J Med Chem, 2020)
≈ marks a conversion by molar mass, not a printed value.

Tested on: not listed separately
Assay: Selectivity ratio of cytotoxicity against human WI38 cells to MIC for Pseudomonas aeruginosa PAO1
Assay type: toxicity, cell-based
Settings: not given
With `COc1cc2c(cc1OCCCC(=O)Nc1cc(C(=O)Nc3ccc4oc(C(=O)N(C)C)cc4c3)n(C)c1)N=C[C@@H]1CCCN1C2=O` the selectivity ratio was 10.

Tested on: Klebsiella pneumoniae
Assay: Antimicrobial activity against Klebsiella pneumoniae M6 by microdilution broth method
Assay type: functional
Settings: not given
`COc1cc2c(cc1OCCCC(=O)Nc1cc(C(=O)Nc3ccc4oc(C(=O)N(C)C)cc4c3)n(C)c1)N=C[C@@H]1CCCN1C2=O` gave an MIC of 0.5 µg/mL (≈ 0.78 µM).

Tested on: Enterococcus faecalis
Assay: Antibacterial activity against vancomycin sensitive Enterococcus faecalis NCTC 775 by microdilution broth method
Assay type: functional
Settings: not given
In the case of `COc1cc2c(cc1OCCCC(=O)Nc1cc(C(=O)Nc3ccc4oc(C(=O)N(C)C)cc4c3)n(C)c1)N=C[C@@H]1CCCN1C2=O`, the MIC is reported as ≤ 0.125 µg/mL.

Tested on: Enterococcus faecium
Assay: Antibacterial activity against vancomycin resistant Enterococcus faecium NCTC 12204 by microdilution broth method
Assay type: functional
Settings: not given
With `COc1cc2c(cc1OCCCC(=O)Nc1cc(C(=O)Nc3ccc4oc(C(=O)N(C)C)cc4c3)n(C)c1)N=C[C@@H]1CCCN1C2=O` the MIC was ≤ 0.125 µg/mL.

Tested on: Staphylococcus aureus
Assay: Antibacterial activity against methicillin resistant Staphylococcus aureus NCTC 13616 by microdilution broth method
Assay type: functional
Settings: not given
With `COc1cc2c(cc1OCCCC(=O)Nc1cc(C(=O)Nc3ccc4oc(C(=O)N(C)C)cc4c3)n(C)c1)N=C[C@@H]1CCCN1C2=O` the MIC was ≤ 0.125 µg/mL.

Tested on: DNA
Assay: Stabilization of 5'-FAM-TAT-ATA-TAG-ATA-TTT-TTT-TAT-CTA-TAT-ATA-3'-TAMRA DNA (unknown origin) assessed as reduction in change in melting temperature at 1:1 to 5:1 ligand to DNA ratio measured after 3 hrs by FRET-based assay relative to control
Assay type: ADME, nucleic-acid assay
Settings: not given
In the case of `COc1cc2c(cc1OCCCC(=O)Nc1cc(C(=O)Nc3ccc4oc(C(=O)N(C)C)cc4c3)n(C)c1)N=C[C@@H]1CCCN1C2=O`, the fold change (FC) is reported as 3 to 4.

Tested on: Acinetobacter baumannii
Assay: Antimicrobial activity against Acinetobacter baumannii ATCC 17978 by microdilution broth method
Assay type: functional
Settings: not given
In the case of `COc1cc2c(cc1OCCCC(=O)Nc1cc(C(=O)Nc3ccc4oc(C(=O)N(C)C)cc4c3)n(C)c1)N=C[C@@H]1CCCN1C2=O`, the MIC is reported as 4 µg/mL (≈ 6.24 µM).

Tested on: not listed separately
Assay: Selectivity ratio of cytotoxicity against human WI38 cells to MIC for multidrug-resistant Pseudomonas aeruginosa NCTC 13437
Assay type: toxicity, cell-based
Settings: not given
`COc1cc2c(cc1OCCCC(=O)Nc1cc(C(=O)Nc3ccc4oc(C(=O)N(C)C)cc4c3)n(C)c1)N=C[C@@H]1CCCN1C2=O` gave a selectivity ratio of 10.

Tested on: not listed separately
Assay: Selectivity ratio of cytotoxicity against human WI38 cells to MIC for multidrug-resistant Acinetobacter baumannii AYE
Assay type: toxicity, cell-based
Settings: not given
For `COc1cc2c(cc1OCCCC(=O)Nc1cc(C(=O)Nc3ccc4oc(C(=O)N(C)C)cc4c3)n(C)c1)N=C[C@@H]1CCCN1C2=O`, the selectivity ratio was 10.

Tested on: not listed separately
Assay: Selectivity ratio of cytotoxicity against human WI38 cells to MIC for vancomycin resistant Enterococcus faecalis NCTC 12201
Assay type: toxicity, cell-based
Settings: not given
Work on `COc1cc2c(cc1OCCCC(=O)Nc1cc(C(=O)Nc3ccc4oc(C(=O)N(C)C)cc4c3)n(C)c1)N=C[C@@H]1CCCN1C2=O` yielded a selectivity ratio of 100.

Tested on: not listed separately
Assay: Cytotoxicity against human WI38 cells assessed as cell viability at 20 uM measured after 24 hrs by MTT assay relative to control
Assay type: cell-based, WI-38
Settings: read-out: Activity
In the case of `COc1cc2c(cc1OCCCC(=O)Nc1cc(C(=O)Nc3ccc4oc(C(=O)N(C)C)cc4c3)n(C)c1)N=C[C@@H]1CCCN1C2=O`, the viability at 24 h, 20 µM is reported as > 85%.

Tested on: not listed separately
Assay: Selectivity ratio of cytotoxicity against human WI38 cells to MIC for methicillin resistant Staphylococcus aureus NCTC 13277
Assay type: toxicity, cell-based
Settings: not given
With `COc1cc2c(cc1OCCCC(=O)Nc1cc(C(=O)Nc3ccc4oc(C(=O)N(C)C)cc4c3)n(C)c1)N=C[C@@H]1CCCN1C2=O` the selectivity ratio was 100.

Tested on: not listed separately
Assay: Selectivity ratio of cytotoxicity against human WI38 cells to MIC for methicillin sensitive Staphylococcus aureus NCTC 6571
Assay type: toxicity, cell-based
Settings: not given
Work on `COc1cc2c(cc1OCCCC(=O)Nc1cc(C(=O)Nc3ccc4oc(C(=O)N(C)C)cc4c3)n(C)c1)N=C[C@@H]1CCCN1C2=O` yielded a selectivity ratio of 100.

Tested on: not listed separately
Assay: Selectivity ratio of cytotoxicity against human WI38 cells to MIC for vancomycin sensitive Enterococcus faecalis NCTC 775
Assay type: toxicity, cell-based
Settings: not given
In the case of `COc1cc2c(cc1OCCCC(=O)Nc1cc(C(=O)Nc3ccc4oc(C(=O)N(C)C)cc4c3)n(C)c1)N=C[C@@H]1CCCN1C2=O`, the selectivity ratio is reported as 100.

Tested on: Enterococcus faecalis
Assay: Antibacterial activity against vancomycin resistant Enterococcus faecalis NCTC 12201 by microdilution broth method
Assay type: functional
Settings: not given
For `COc1cc2c(cc1OCCCC(=O)Nc1cc(C(=O)Nc3ccc4oc(C(=O)N(C)C)cc4c3)n(C)c1)N=C[C@@H]1CCCN1C2=O`, the MIC was 0.5 µg/mL (≈ 0.78 µM).

Tested on: DNA
Assay: Stabilization of 5'-FAM-TAT-AGA-TAT-AGA-TAT-TTT-ATA-TCT-ATA-TCT-ATA-3'-TAMRA DNA (unknown origin) assessed as reduction in change in melting temperature at 1:1 to 5:1 ligand to DNA ratio measured after 3 hrs by FRET-based assay relative to control
Assay type: ADME, nucleic-acid assay
Settings: not given
Compound `COc1cc2c(cc1OCCCC(=O)Nc1cc(C(=O)Nc3ccc4oc(C(=O)N(C)C)cc4c3)n(C)c1)N=C[C@@H]1CCCN1C2=O` has a fold change (FC) of 3 to 4.

Tested on: not listed separately
Assay: Selectivity ratio of cytotoxicity against human WI38 cells to MIC for Klebsiella pneumoniae M6
Assay type: toxicity, cell-based
Settings: not given
Compound `COc1cc2c(cc1OCCCC(=O)Nc1cc(C(=O)Nc3ccc4oc(C(=O)N(C)C)cc4c3)n(C)c1)N=C[C@@H]1CCCN1C2=O` has a selectivity ratio of 10.

Tested on: not listed separately
Assay: Selectivity ratio of cytotoxicity against human WI38 cells to MIC for Acinetobacter baumannii ATCC 17978
Assay type: toxicity, cell-based
Settings: not given
In the case of `COc1cc2c(cc1OCCCC(=O)Nc1cc(C(=O)Nc3ccc4oc(C(=O)N(C)C)cc4c3)n(C)c1)N=C[C@@H]1CCCN1C2=O`, the selectivity ratio is reported as 10.

Tested on: not listed separately
Assay: Selectivity ratio of cytotoxicity against human WI38 cells to MIC for vancomycin resistant Enterococcus faecium NCTC 12204
Assay type: toxicity, cell-based
Settings: not given
With `COc1cc2c(cc1OCCCC(=O)Nc1cc(C(=O)Nc3ccc4oc(C(=O)N(C)C)cc4c3)n(C)c1)N=C[C@@H]1CCCN1C2=O` the selectivity ratio was 100.

Tested on: Pseudomonas aeruginosa
Assay: Antimicrobial activity against Pseudomonas aeruginosa PAO1 by microdilution broth method
Assay type: functional
Settings: not given
Compound `COc1cc2c(cc1OCCCC(=O)Nc1cc(C(=O)Nc3ccc4oc(C(=O)N(C)C)cc4c3)n(C)c1)N=C[C@@H]1CCCN1C2=O` has an MIC of 128 µg/mL (≈ 200 µM).

Tested on: Staphylococcus aureus
Assay: Antibacterial activity against methicillin resistant Staphylococcus aureus NCTC 13277 by microdilution broth method
Assay type: functional
Settings: not given
For `COc1cc2c(cc1OCCCC(=O)Nc1cc(C(=O)Nc3ccc4oc(C(=O)N(C)C)cc4c3)n(C)c1)N=C[C@@H]1CCCN1C2=O`, the MIC was ≤ 0.125 µg/mL.

Tested on: not listed separately
Assay: Selectivity ratio of cytotoxicity against human WI38 cells to MIC for methicillin resistant Staphylococcus aureus NCTC 13616
Assay type: toxicity, cell-based
Settings: not given
For `COc1cc2c(cc1OCCCC(=O)Nc1cc(C(=O)Nc3ccc4oc(C(=O)N(C)C)cc4c3)n(C)c1)N=C[C@@H]1CCCN1C2=O`, the selectivity ratio was 100.

Tested on: Acinetobacter baumannii
Assay: Antimicrobial activity against multidrug-resistant Acinetobacter baumannii AYE by microdilution broth method
Assay type: functional
Settings: not given
For `COc1cc2c(cc1OCCCC(=O)Nc1cc(C(=O)Nc3ccc4oc(C(=O)N(C)C)cc4c3)n(C)c1)N=C[C@@H]1CCCN1C2=O`, the MIC was 4 µg/mL (≈ 6.24 µM).

Tested on: Klebsiella pneumoniae
Assay: Antimicrobial activity against multidrug-resistant Klebsiella pneumoniae NCTC 13368 by microdilution broth method
Assay type: functional
Settings: not given
For `COc1cc2c(cc1OCCCC(=O)Nc1cc(C(=O)Nc3ccc4oc(C(=O)N(C)C)cc4c3)n(C)c1)N=C[C@@H]1CCCN1C2=O`, the MIC was 16 µg/mL (≈ 25 µM).

Tested on: Pseudomonas aeruginosa
Assay: Antimicrobial activity against multidrug-resistant Pseudomonas aeruginosa NCTC 13437 by microdilution broth method
Assay type: functional
Settings: not given
For `COc1cc2c(cc1OCCCC(=O)Nc1cc(C(=O)Nc3ccc4oc(C(=O)N(C)C)cc4c3)n(C)c1)N=C[C@@H]1CCCN1C2=O`, the MIC was 64 µg/mL (≈ 99.9 µM).

Tested on: Staphylococcus aureus
Assay: Antibacterial activity against methicillin sensitive Staphylococcus aureus NCTC 6571 by microdilution broth method
Assay type: functional
Settings: not given
In the case of `COc1cc2c(cc1OCCCC(=O)Nc1cc(C(=O)Nc3ccc4oc(C(=O)N(C)C)cc4c3)n(C)c1)N=C[C@@H]1CCCN1C2=O`, the MIC is reported as ≤ 0.125 µg/mL.

Tested on: not listed separately
Assay: Selectivity ratio of cytotoxicity against human WI38 cells to MIC for multidrug-resistant Klebsiella pneumoniae NCTC 13368
Assay type: toxicity, cell-based
Settings: not given
Work on `COc1cc2c(cc1OCCCC(=O)Nc1cc(C(=O)Nc3ccc4oc(C(=O)N(C)C)cc4c3)n(C)c1)N=C[C@@H]1CCCN1C2=O` yielded a selectivity ratio of 10.
